According to PubChem BioAssay (NCI):
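96-well plates; 48 h exposure; 5 concentrations. Endpoints by linear interpolation between flanking doses. Not reached: highest tested concentration assigned. TGI: total growth inhibition.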

Tests used:
Assay in all cases: DTP human tumour cell line panel, 48 h
UACC-257 melanoma = test system: UACC-257 melanoma
COLO 205 colon = test system: COLO 205 colon
LOX IMVI melanoma = test system: LOX IMVI melanoma
NCI-H460 lung = test system: NCI-H460 lung
PC-3 prostate = test system: PC-3 prostate
NCI/ADR-RES ovarian = test system: NCI/ADR-RES ovarian
SNB-19 CNS = test system: SNB-19 CNS
CAKI-1 renal = test system: CAKI-1 renal
M14 melanoma = test system: M14 melanoma
SF-295 CNS = test system: SF-295 CNS
SW-620 colon = test system: SW-620 colon
MDA-N = test system: MDA-N
OVCAR-8 ovarian = test system: OVCAR-8 ovarian
HL-60(TB) leukemia = test system: HL-60(TB) leukemia
T-47D breast = test system: T-47D breast
MDA-MB-435 = test system: MDA-MB-435
OVCAR-5 ovarian = test system: OVCAR-5 ovarian
MDA-MB-231 breast = test system: MDA-MB-231 breast
NCI-H23 lung = test system: NCI-H23 lung
MOLT-4 leukemia = test system: MOLT-4 leukemia
A549 NSCLC = test system: A549 NSCLC
HCC-2998 colon = test system: HCC-2998 colon
RPMI-8226 leukemia = test system: RPMI-8226 leukemia
SK-MEL-5 melanoma = test system: SK-MEL-5 melanoma
786-0 renal = test system: 786-0 renal
SK-OV-3 ovarian = test system: SK-OV-3 ovarian
HT29 colon = test system: HT29 colon
SK-MEL-28 melanoma = test system: SK-MEL-28 melanoma
SF-539 CNS = test system: SF-539 CNS
IGROV1 ovarian = test system: IGROV1 ovarian
HCT-116 colon = test system: HCT-116 colon
MCF7 breast = test system: MCF7 breast
RXF 393 renal = test system: RXF 393 renal
CCRF-CEM leukemia = test system: CCRF-CEM leukemia
DU-145 prostate = test system: DU-145 prostate
HOP-62 NSCLC = test system: HOP-62 NSCLC
HS 578T breast = test system: HS 578T breast
OVCAR-3 ovarian = test system: OVCAR-3 ovarian
SNB-75 CNS = test system: SNB-75 CNS
HCT-15 colon = test system: HCT-15 colon
SK-MEL-2 melanoma = test system: SK-MEL-2 melanoma
UO-31 renal = test system: UO-31 renal
OVCAR-4 ovarian = test system: OVCAR-4 ovarian
EKVX NSCLC = test system: EKVX NSCLC
K-562 leukemia = test system: K-562 leukemia
TK-10 renal = test system: TK-10 renal
ACHN renal = test system: ACHN renal
SN12C renal = test system: SN12C renal
NCI-H226 lung = test system: NCI-H226 lung
BT-549 breast = test system: BT-549 breast
MALME-3M melanoma = test system: MALME-3M melanoma
NCI-H522 lung = test system: NCI-H522 lung
SF-268 CNS = test system: SF-268 CNS
UACC-62 melanoma = test system: UACC-62 melanoma
HOP-92 NSCLC = test system: HOP-92 NSCLC
U251 CNS = test system: U251 CNS
A498 renal = test system: A498 renal
KM12 colon = test system: KM12 colon

O=C(c1ccccc1)N1OCCC1Nc1ccc(Br)cc1 (stereo not given)
TGI (UACC-257 melanoma): > 10 µM
TGI (COLO 205 colon): 4.33 µM
TGI (LOX IMVI melanoma): > 10 µM
TGI (NCI-H460 lung): > 10 µM
TGI (PC-3 prostate): > 10 µM
TGI (NCI/ADR-RES ovarian): > 10 µM
TGI (SNB-19 CNS): > 10 µM
TGI (CAKI-1 renal): > 10 µM
TGI (M14 melanoma): > 10 µM
TGI (SF-295 CNS): > 10 µM
TGI (SW-620 colon): > 10 µM
TGI (MDA-N): > 10 µM
TGI (OVCAR-8 ovarian): > 10 µM
TGI (HL-60(TB) leukemia): > 10 µM
TGI (T-47D breast): > 10 µM
TGI (MDA-MB-435): > 10 µM
TGI (OVCAR-5 ovarian): > 10 µM
TGI (MDA-MB-231 breast): > 10 µM
TGI (NCI-H23 lung): > 10 µM
TGI (MOLT-4 leukemia): > 10 µM
TGI (A549 NSCLC): > 10 µM
TGI (HCC-2998 colon): > 10 µM
TGI (RPMI-8226 leukemia): > 10 µM
TGI (SK-MEL-5 melanoma): > 10 µM
TGI (786-0 renal): > 10 µM
TGI (SK-OV-3 ovarian): > 10 µM
TGI (HT29 colon): > 10 µM
TGI (SK-MEL-28 melanoma): > 10 µM
TGI (SF-539 CNS): > 10 µM
TGI (IGROV1 ovarian): > 10 µM
TGI (HCT-116 colon): > 10 µM
TGI (MCF7 breast): > 10 µM
TGI (RXF 393 renal): > 10 µM
TGI (CCRF-CEM leukemia): > 10 µM
TGI (DU-145 prostate): > 10 µM
TGI (HOP-62 NSCLC): > 10 µM
TGI (HS 578T breast): > 10 µM
TGI (OVCAR-3 ovarian): > 10 µM
TGI (SNB-75 CNS): > 10 µM
TGI (HCT-15 colon): > 10 µM
TGI (SK-MEL-2 melanoma): > 10 µM
TGI (UO-31 renal): 8.81 µM
TGI (OVCAR-4 ovarian): > 10 µM
TGI (EKVX NSCLC): > 10 µM
TGI (K-562 leukemia): > 10 µM
TGI (TK-10 renal): > 10 µM
TGI (ACHN renal): > 10 µM
TGI (SN12C renal): > 10 µM
TGI (NCI-H226 lung): > 10 µM
TGI (BT-549 breast): > 10 µM
TGI (MALME-3M melanoma): > 10 µM
TGI (NCI-H522 lung): > 10 µM
TGI (SF-268 CNS): > 10 µM

COC(=O)C(Cc1ccc(Oc2cc(CC(NC(=O)c3ccccc3)C(=O)OC)ccc2OC)cc1)NC(=O)c1ccccc1 (stereo not given)
TGI (UACC-257 melanoma): 23.8 µM
TGI (COLO 205 colon): > 73.2 µM
TGI (LOX IMVI melanoma): > 71.6 µM
TGI (NCI-H460 lung): > 100 µM
TGI (PC-3 prostate): > 85.8 µM
TGI (NCI/ADR-RES ovarian): > 100 µM
TGI (SNB-19 CNS): > 100 µM
TGI (CAKI-1 renal): > 100 µM
TGI (M14 melanoma): 20.9 µM
TGI (SF-295 CNS): > 100 µM
TGI (SW-620 colon): > 100 µM
TGI (MDA-N): 34 µM
TGI (UACC-62 melanoma): 42.7 µM
TGI (OVCAR-8 ovarian): > 60.9 µM
TGI (HL-60(TB) leukemia): > 57.3 µM
TGI (T-47D breast): > 51.4 µM
TGI (HOP-92 NSCLC): > 65.1 µM
TGI (MDA-MB-435): > 63.5 µM
TGI (OVCAR-5 ovarian): > 100 µM
TGI (MDA-MB-231 breast): > 78.8 µM
TGI (NCI-H23 lung): > 82.2 µM
TGI (MOLT-4 leukemia): > 100 µM
TGI (A549 NSCLC): > 100 µM
TGI (HCC-2998 colon): > 100 µM
TGI (RPMI-8226 leukemia): > 69.3 µM
TGI (SK-MEL-5 melanoma): 32.9 µM
TGI (786-0 renal): 30 µM
TGI (SK-OV-3 ovarian): > 100 µM
TGI (HT29 colon): > 100 µM
TGI (SK-MEL-28 melanoma): > 52.4 µM
TGI (SF-539 CNS): > 60.2 µM
TGI (IGROV1 ovarian): > 100 µM
TGI (HCT-116 colon): > 100 µM
TGI (MCF7 breast): > 100 µM
TGI (RXF 393 renal): 28.5 µM
TGI (DU-145 prostate): > 50.3 µM
TGI (HOP-62 NSCLC): > 100 µM
TGI (HS 578T breast): 61.8 µM
TGI (OVCAR-3 ovarian): > 87.3 µM
TGI (SNB-75 CNS): > 100 µM
TGI (U251 CNS): > 100 µM
TGI (HCT-15 colon): > 100 µM
TGI (SK-MEL-2 melanoma): > 74 µM
TGI (UO-31 renal): 24.2 µM
TGI (OVCAR-4 ovarian): > 72.5 µM
TGI (EKVX NSCLC): > 86.9 µM
TGI (K-562 leukemia): > 100 µM
TGI (TK-10 renal): > 59.8 µM
TGI (ACHN renal): > 55 µM
TGI (SN12C renal): 21.3 µM
TGI (NCI-H226 lung): > 64.5 µM
TGI (A498 renal): > 100 µM
TGI (BT-549 breast): > 81.3 µM
TGI (MALME-3M melanoma): 29.8 µM
TGI (NCI-H522 lung): 27.2 µM
TGI (SF-268 CNS): 48.9 µM
TGI (KM12 colon): > 100 µM
